Laboratory results from article PMC10674565 (Pharmaceuticals, 2023).
Each block holds one molecule with its values, some of them ahead of it.

Key:
[1] = set-up: method as in earlier work; details: liver metabolites of EMHPS; cited from earlier work
SLCO1B1 = biological target: T1, SLCO1B1 (Homo sapiens, UniProt Q9Y6L6); assay: Inhibition of SLCO1B1-mediated uptake of atorvastatin in HEK293-SLCO1B1 cells; format: in vitro ADME; set-up: The SLCO1B1 gene was obtained via synthesis and was cloned into the pEGFP-N1 vector; expressed in transfected cells; host or cells: HEK293
T1 sequence (Q9Y6L6 1-691): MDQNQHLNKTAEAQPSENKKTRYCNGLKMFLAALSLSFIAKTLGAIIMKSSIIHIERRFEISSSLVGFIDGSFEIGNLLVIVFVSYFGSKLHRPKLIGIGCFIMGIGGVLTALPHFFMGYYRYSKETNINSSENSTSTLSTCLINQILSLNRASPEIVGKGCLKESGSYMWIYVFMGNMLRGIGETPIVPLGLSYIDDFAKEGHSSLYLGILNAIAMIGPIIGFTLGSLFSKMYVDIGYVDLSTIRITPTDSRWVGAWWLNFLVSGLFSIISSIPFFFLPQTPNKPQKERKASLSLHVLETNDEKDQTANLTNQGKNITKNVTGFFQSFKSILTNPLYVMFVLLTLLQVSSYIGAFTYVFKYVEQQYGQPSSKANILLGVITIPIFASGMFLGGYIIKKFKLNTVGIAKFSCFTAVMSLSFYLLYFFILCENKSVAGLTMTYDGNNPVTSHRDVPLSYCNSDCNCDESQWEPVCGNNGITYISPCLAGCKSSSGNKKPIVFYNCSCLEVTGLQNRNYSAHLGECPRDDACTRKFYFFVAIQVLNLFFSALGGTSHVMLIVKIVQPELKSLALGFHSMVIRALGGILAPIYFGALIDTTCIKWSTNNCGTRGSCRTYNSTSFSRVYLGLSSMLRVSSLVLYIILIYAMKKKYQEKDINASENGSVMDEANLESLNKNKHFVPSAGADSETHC
Method: As a positive inhibition control, rifampicin at similar concentrations was used. Three independent experiments were performed. […] Proteins were precipitated by adding acetonitrile in a 1:1 ratio to the sample. […] The mobile phase gradient program was as follows: 0-0.6 min-35% A and 65% B, 0.6-5.0 min-5% A and 95% B, 5.0-8.0 min-35% A and 65% B. The flow rate and the column temperature were maintained at 300 μL/min and 35 °C. Aliquots (2 μL) of the extracted samples were injected.

ABCB1 = ABCB1 (Homo sapiens, UniProt P08183); assay: Effect on ABCB1-mediated transport of fexofenadine through the Caco-2 cells monolayer; details: all tested concentrations (1–200 µM), Caco-2 monolayer
Chain of ABCB1 (P08183 whole entry): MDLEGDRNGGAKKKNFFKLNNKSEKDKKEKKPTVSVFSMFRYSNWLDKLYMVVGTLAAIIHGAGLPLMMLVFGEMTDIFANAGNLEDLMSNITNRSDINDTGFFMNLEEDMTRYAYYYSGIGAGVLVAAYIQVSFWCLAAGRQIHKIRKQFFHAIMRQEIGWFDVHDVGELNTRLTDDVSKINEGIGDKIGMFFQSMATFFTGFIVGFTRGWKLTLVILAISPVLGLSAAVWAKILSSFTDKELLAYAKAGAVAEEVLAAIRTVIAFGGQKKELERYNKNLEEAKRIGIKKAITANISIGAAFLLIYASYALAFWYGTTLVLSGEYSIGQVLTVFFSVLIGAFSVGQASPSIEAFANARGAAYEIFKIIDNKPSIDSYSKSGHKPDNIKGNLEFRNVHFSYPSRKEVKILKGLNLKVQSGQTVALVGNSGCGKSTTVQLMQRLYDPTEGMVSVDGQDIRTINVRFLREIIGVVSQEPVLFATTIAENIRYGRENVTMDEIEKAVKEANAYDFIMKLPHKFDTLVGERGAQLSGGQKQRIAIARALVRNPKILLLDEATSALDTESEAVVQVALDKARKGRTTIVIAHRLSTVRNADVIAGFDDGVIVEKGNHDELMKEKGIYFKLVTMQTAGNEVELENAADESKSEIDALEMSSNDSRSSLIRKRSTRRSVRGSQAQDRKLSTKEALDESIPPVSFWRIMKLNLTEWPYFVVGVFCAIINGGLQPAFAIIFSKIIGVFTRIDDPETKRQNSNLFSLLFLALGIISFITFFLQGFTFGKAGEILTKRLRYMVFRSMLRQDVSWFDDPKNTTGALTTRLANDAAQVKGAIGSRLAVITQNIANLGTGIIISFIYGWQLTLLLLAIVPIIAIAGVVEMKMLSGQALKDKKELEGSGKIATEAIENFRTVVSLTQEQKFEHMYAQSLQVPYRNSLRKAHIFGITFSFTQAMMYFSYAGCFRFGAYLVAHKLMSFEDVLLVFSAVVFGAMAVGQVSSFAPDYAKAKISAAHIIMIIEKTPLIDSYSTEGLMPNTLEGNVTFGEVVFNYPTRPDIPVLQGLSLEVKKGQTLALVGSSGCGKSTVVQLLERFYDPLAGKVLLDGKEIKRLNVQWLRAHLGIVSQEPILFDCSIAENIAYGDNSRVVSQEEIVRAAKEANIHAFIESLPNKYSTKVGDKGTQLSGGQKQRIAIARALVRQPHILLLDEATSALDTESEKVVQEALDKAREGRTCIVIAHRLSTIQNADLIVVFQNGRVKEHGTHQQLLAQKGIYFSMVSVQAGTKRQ
Method: Transport experiments were carried out in Transwell® systems (12 mm Transwell® with 0.4 µm Pore Polycarbonate Membrane Insert, Sterile, «Corning»). The Transwell® system consists of two chambers, apical and basolateral. […] The medium was changed every 2–3 days. The apical and basolateral chambers represent the luminal and blood/mesenteric lymph sides of the gastrointestinal tract, respectively.
The transepithelial electrical resistance (TEER) across the cell monolayers was monitored using a Millicell-ERS (electrical resistance system) to assess cell monolayer integrity. For transport studies, only monolayers with a TEER > 500 Ω cm^2 were used.
To study the roles of different parts of the EMHPS molecule for its action on ABCB1, experiments with succinic acid were also carried out.
Prior to the transport experiments, the culture media was aspirated, and the monolayers were washed twice with transport medium and preincubated with EMHPS, succinic acid, or verapamil for 30 min.
The data are presented as the mean ± SD from three monolayers.
The resulting sample of the transport medium (50 μL) was diluted in 150 μL of the mobile phase, and 100 μL of the resulting solution was injected into the chromatograph. A Phenomenex Synergi 4u Polar-RP 80A (250 × 4.6) chromatographic column was used for analysis. The separation temperature was 35 °C; the flow rate was 1 mL/min. Composition of the mobile phase: acetonitrile (128 mL), deionized water (267.4 mL), acetic acid (6.33 mL), triethylamine to pH = 6.7. […] Detection was carried out at a wavelength of 220 nm.
Half maximal inhibitory concentration (IC50) values were determined through nonlinear regression based on the three-parameter logistic function.

[2] = human, HEK293-SLCO1B1 cells, pH 7.4, probe atorvastatin 1 µM

SMILES: CCc1nc(C)ccc1O[C@@H]1O[C@H](C(=O)O)[C@@H](O)[C@H](O)[C@H]1O [2-ethyl-6-methyl-3-hydroxypyridine glucuronide]
pharmacological activity [1]: no pharmacological activity

SMILES: CCc1nc(C)ccc1O.O=P(O)(O)O [2-ethyl-6-methyl-3-hydroxypyridine phosphate]
pharmacological activity [1]: no pharmacological activity

IC50 (SLCO1B1): 2510 ± 1350 nM
inhibition at 100 µM (SLCO1B1; [2]): 91.2%
inhibition at 500 µM (SLCO1B1; [2]): 95.4%
SMILES: CO[C@H]1/C=C/O[C@@]2(C)Oc3c(C)c(O)c4c(O)c(c(/C=N/N5CCN(C)CC5)c(O)c4c3C2=O)NC(=O)/C(C)=C\C=C\[C@H](C)[C@H](O)[C@@H](C)[C@@H](O)[C@@H](C)[C@H](OC(C)=O)[C@@H]1C [rifampicin]

SMILES: O=C(O)CCC(=O)O [succinic acid]
effect on Papp b-a, Papp a-b, and ER of fexofenadine transport (ABCB1): did not have a significant effect
effect on SLCO1B1 activity (SLCO1B1; all tested concentrations (1–500 µM), uptake of 1 µM atorvastatin): did not have a significant effect
